Measured values reported in publication PMC9305971, “Development of [^18F]AmBF3 Tetrazine for Radiolabeling of Peptides: Preclinical Evaluation and PET Imaging of [^18F]AmBF3-PEG7-Tyr^3-Octreotide in an AR42J Pancreatic Carcinoma Model” (Bioconjugate Chemistry, 2022).
Read-outs that look alike come from different tables or passages of the source.

Columns and labels:
[1] = test system: subcutaneous AR42J tumor; test: PET/CT imaging of [18F]15; format: in vivo, Rj:NMRI-Foxn1^nu/nu mice; conditions: i.v., 0.2 nmol
Method: (§1) [^18F]6 in 10% ethanol–0.01 M PBS was administered intravenously to male Fox Chase SCID mice (CB.17 SCID) (11.0 ± 0.5 MBq, ∼11 nmol, ∼150 μL, n = 4) and healthy female C57BL/6JRj mice (11.3 ± 0.3 MBq, ∼11 nmol, ∼150 μL, n = 4) under 2% isoflurane anesthesia. The PET/CT image was acquired with Inveon PET/CT for 60 min followed by a 15 min static scan 4 h after injection of the tracer. The images of the dynamic scan were reconstructed to time frames 60 × 10, 10 × 60, 4 × 300, and 3 × 600 s. After the second PET imaging (t = 270 ± 1.9 min post injection, n = 4), the organs were harvested and the radioactivity in each tissue sample was measured with a γ-counter and reported as a percentage of injected dose per gram of tissue (% ID/g). [^18F]15 was formulated in 4% ethanol in 0.01 M PBS and administered intravenously (0.2 nmol, 0.80 ± 0.30 MBq; tracer: 150 μL; tracer + blocking dose: 200 μL) to AR42J tumor-bearing Rj:NMRI-Foxn1^nu/nu mice (n = 4) under 2% isoflurane anesthesia. PET/CT images were acquired with Molecubes PET (β-CUBE) coupled with a CT (X-CUBE) (MOLECUBES NV, Ghent, Belgium) with two mice being imaged at the same time under 2% isoflurane anesthesia. Images were reconstructed to time frames 30 × 10, 15 × 60, 4 × 300, and 5 × 600 s. Quantitative image analysis was done with Carimas software (v 2.10, Turku PET Centre, Turku, Finland). Spherical ROIs were hand-drawn based on anatomical CT data and PET signal for the desired organs. The results are presented as standardized uptake values (SUVs).
(§2) The standardized uptake values (SUVs) were determined from the PET image by drawing regions-of-interest (ROI) around selected organs (heart, liver, kidney, lung, muscle, urinary bladder) with Carimas software (version 2.10, Turku PET Centre, Turku, Finland ) and by measuring the ratio of radioactivity per unit volume of that ROI and normalized to the injected […]
dose. […]

[2] = PET/CT imaging of [18F]15; format: in vivo, Rj:NMRI-Foxn1^nu/nu mice; conditions: Rj:NMRI-Foxn1^nu/nu, mouse, subcutaneous AR42J tumor, iv, 0.2 nmol, total radioactivity; for SUV at 25 min: 25 min post injection; for SUV at 1.5 h: 90 min post injection
Method: as §1, §2
dose. […]

## C[C@@H](O)[C@@H]1NC(=O)[C@H](CCCCN)NC(=O)[C@@H](Cc2c[nH]c3ccccc23)NC(=O)[C@H](Cc2ccc(O)cc2)NC(=O)[C@@H](NC(=O)[C@@H](Cc2ccccc2)NC(=O)CCOCCOCCOCCOCCON=Cc2ccc(C(=O)NCCOCCOCCOCCNC(=O)OC3CCCc4cnnc(-c5ccc(CC(=O)NCC[N+](C)(C)C[B-](F)(F)F)cc5)c4CC3)cc2)CSSC[C@@H](C(=O)N[C@H](CO)[C@@H](C)O)NC1=O (some centres unmarked) [[^18F]15]
[1]
  time of peak radioactivity in tumor (TAC): 20 to 30 min
[2]; coadministration of octreotide, read-out: tumor SUV, blocked
  SUV at 25 min: 0.76 ± 0.04 SUV
[2]; read-out: tumor SUV, baseline
  SUV at 25 min: 1.01 ± 0.07 SUV
[2]; n = 2, coadministration of octreotide, read-out: tumor SUV, blocking
  SUV at 1.5 h: 0.76 ± 0.03 SUV
[2]; n = 2, read-out: tumor SUV, baseline
  SUV at 1.5 h: 0.82 ± 0.14 SUV
